Measurements published in PubChem BioAssay (NCI).
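Five compound concentrations were applied to cells in 96-well plates for 48 hours; endpoints were derived by simple linear interpolation of the resulting dose-response curve. At the TGI there is no net growth.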

Tests used:
Test in all cases: growth of human tumour cells (NCI), 48 h
[1] = system: 786-0 renal
[2] = system: A498 renal
[3] = system: ACHN renal
[4] = system: BT-549 breast
[5] = system: CAKI-1 renal
[6] = system: CCRF-CEM leukemia
[7] = system: COLO 205 colon
[8] = system: DU-145 prostate
[9] = system: EKVX NSCLC
[10] = system: HCC-2998 colon
[11] = system: HCT-116 colon
[12] = system: HCT-15 colon
[13] = system: HL-60(TB) leukemia
[14] = system: HOP-62 NSCLC
[15] = system: HOP-92 NSCLC
[16] = system: HS 578T breast
[17] = system: HT29 colon
[18] = system: IGROV1 ovarian
[19] = system: K-562 leukemia
[20] = system: KM12 colon
[21] = system: LOX IMVI melanoma
[22] = system: M14 melanoma
[23] = system: MALME-3M melanoma
[24] = system: MCF7 breast
[25] = system: MDA-MB-231 breast
[26] = system: MDA-MB-435
[27] = system: MDA-N
[28] = system: MOLT-4 leukemia
[29] = system: NCI-H226 lung
[30] = system: NCI-H23 lung
[31] = system: NCI-H460 lung
[32] = system: NCI-H522 lung
[33] = system: NCI/ADR-RES ovarian
[34] = system: OVCAR-3 ovarian
[35] = system: OVCAR-4 ovarian
[36] = system: OVCAR-5 ovarian
[37] = system: OVCAR-8 ovarian
[38] = system: PC-3 prostate
[39] = system: RPMI-8226 leukemia
[40] = system: RXF 393 renal
[41] = system: SF-268 CNS
[42] = system: SF-295 CNS
[43] = system: SF-539 CNS
[44] = system: SK-MEL-2 melanoma
[45] = system: SK-MEL-28 melanoma
[46] = system: SK-OV-3 ovarian
[47] = system: SN12C renal
[48] = system: SNB-19 CNS
[49] = system: SNB-75 CNS
[50] = system: SW-620 colon
[51] = system: T-47D breast
[52] = system: TK-10 renal
[53] = system: U251 CNS
[54] = system: UACC-257 melanoma
[55] = system: UACC-62 melanoma
[56] = system: A549 NSCLC
[57] = system: SK-MEL-5 melanoma
[58] = system: UO-31 renal

Structure (SMILES): O=c1cc(N2CCOCC2)[nH]c(=O)n1-c1cccc(Cl)c1
- TGI [1]: > 100 µM
- TGI [2]: > 100 µM
- TGI [3]: > 100 µM
- TGI [4]: > 100 µM
- TGI [5]: > 100 µM
- TGI [6]: > 100 µM
- TGI [7]: > 100 µM
- TGI [8]: > 100 µM
- TGI [9]: > 100 µM
- TGI [10]: > 100 µM
- TGI [11]: > 100 µM
- TGI [12]: > 100 µM
- TGI [13]: > 100 µM
- TGI [14]: > 100 µM
- TGI [15]: > 100 µM
- TGI [16]: > 100 µM
- TGI [17]: > 100 µM
- TGI [18]: > 100 µM
- TGI [19]: > 100 µM
- TGI [20]: > 100 µM
- TGI [21]: > 100 µM
- TGI [22]: > 100 µM
- TGI [23]: > 100 µM
- TGI [24]: > 100 µM
- TGI [25]: > 100 µM
- TGI [26]: > 100 µM
- TGI [27]: > 100 µM
- TGI [28]: > 100 µM
- TGI [29]: > 100 µM
- TGI [30]: > 100 µM
- TGI [31]: > 100 µM
- TGI [32]: > 100 µM
- TGI [33]: > 100 µM
- TGI [34]: > 100 µM
- TGI [35]: > 100 µM
- TGI [36]: > 100 µM
- TGI [37]: > 100 µM
- TGI [38]: > 100 µM
- TGI [39]: > 100 µM
- TGI [40]: > 100 µM
- TGI [41]: > 100 µM
- TGI [42]: > 100 µM
- TGI [43]: > 100 µM
- TGI [44]: > 100 µM
- TGI [45]: > 100 µM
- TGI [46]: > 100 µM
- TGI [47]: > 100 µM
- TGI [48]: > 100 µM
- TGI [49]: > 100 µM
- TGI [50]: > 100 µM
- TGI [51]: > 100 µM
- TGI [52]: > 100 µM
- TGI [53]: > 100 µM
- TGI [54]: > 100 µM
- TGI [55]: > 100 µM

Structure (SMILES): COc1ccc2c(c1)/C(=C\c1c(-c3ccccc3)nc3n1CCS3)C(=O)N2
- TGI [1]: 28.6 µM
- TGI [2]: 21.3 µM
- TGI [56]: 55.9 µM
- TGI [3]: 56.8 µM
- TGI [4]: 32.7 µM
- TGI [5]: 37.4 µM
- TGI [6]: 26.9 µM
- TGI [7]: 11.2 µM
- TGI [8]: 60 µM
- TGI [9]: 48 µM
- TGI [10]: 22.9 µM
- TGI [11]: 18.2 µM
- TGI [12]: 40.6 µM
- TGI [13]: 11.4 µM
- TGI [14]: 27.6 µM
- TGI [15]: 30.8 µM
- TGI [16]: 38.7 µM
- TGI [17]: 16 µM
- TGI [18]: 21.4 µM
- TGI [19]: 17 µM
- TGI [20]: 19.6 µM
- TGI [21]: 20.6 µM
- TGI [22]: 23 µM
- TGI [23]: 30.7 µM
- TGI [24]: 29 µM
- TGI [25]: 17.9 µM
- TGI [26]: 7.19 µM
- TGI [27]: 5.62 µM
- TGI [28]: 16.9 µM
- TGI [30]: 33.4 µM
- TGI [31]: 14.4 µM
- TGI [32]: 24.4 µM
- TGI [33]: 35.4 µM
- TGI [34]: 15.6 µM
- TGI [36]: 51.8 µM
- TGI [37]: 47.5 µM
- TGI [38]: 17.2 µM
- TGI [39]: 32.2 µM
- TGI [40]: 34.3 µM
- TGI [41]: 28.1 µM
- TGI [42]: 15.1 µM
- TGI [43]: 19.1 µM
- TGI [44]: 20.2 µM
- TGI [45]: 27.7 µM
- TGI [57]: 17 µM
- TGI [46]: 34.5 µM
- TGI [47]: 27.6 µM
- TGI [48]: > 100 µM
- TGI [49]: 36.8 µM
- TGI [50]: 16.3 µM
- TGI [51]: 61.6 µM
- TGI [52]: 27.8 µM
- TGI [53]: 20.3 µM
- TGI [54]: 27.4 µM
- TGI [55]: 18.2 µM
- TGI [58]: 34.2 µM

Structure (SMILES): N=c1c2c(=S)n(-c3ccccc3)c(=S)n(-c3ccccc3)c2nc(SCCCN2CCCCC2)n1-c1ccccc1
- TGI [1]: 2.28 µM
- TGI [2]: 7.11 µM
- TGI [56]: 3.78 µM
- TGI [3]: 3.08 µM
- TGI [4]: 3.41 µM
- TGI [5]: 3.15 µM
- TGI [6]: 1.41 µM
- TGI [7]: 3.19 µM
- TGI [8]: 3.03 µM
- TGI [9]: 3.47 µM
- TGI [10]: 2.82 µM
- TGI [11]: 3.1 µM
- TGI [12]: 3.23 µM
- TGI [13]: 3.81 µM
- TGI [14]: 3.38 µM
- TGI [15]: 3.28 µM
- TGI [16]: > 100 µM
- TGI [17]: 4.32 µM
- TGI [18]: 3.09 µM
- TGI [20]: 3.44 µM
- TGI [22]: 3.1 µM
- TGI [23]: 3.31 µM
- TGI [24]: 1.3 µM
- TGI [25]: 3.05 µM
- TGI [26]: 3.14 µM
- TGI [27]: 3.33 µM
- TGI [29]: 6.84 µM
- TGI [30]: 3.37 µM
- TGI [31]: 4.3 µM
- TGI [32]: 2.54 µM
- TGI [33]: 8.97 µM
- TGI [34]: 3.02 µM
- TGI [35]: 3.23 µM
- TGI [36]: 26.2 µM
- TGI [37]: 3.36 µM
- TGI [38]: 3.03 µM
- TGI [39]: > 100 µM
- TGI [40]: 3.26 µM
- TGI [41]: 3.55 µM
- TGI [42]: 12.6 µM
- TGI [43]: 16.7 µM
- TGI [44]: 3.77 µM
- TGI [45]: 5.1 µM
- TGI [57]: 3.63 µM
- TGI [46]: 5.34 µM
- TGI [47]: 3.28 µM
- TGI [48]: 9.41 µM
- TGI [49]: 3.28 µM
- TGI [50]: 5.15 µM
- TGI [51]: 5.78 µM
- TGI [52]: 3.08 µM
- TGI [53]: 3.12 µM
- TGI [54]: 3.31 µM
- TGI [55]: 3.03 µM
